# Measurements published in patent publication US8735377B1, “Methods of treating herpes zoster” (priority 2010, dated 2014).
# How the values were obtained:
# [1] = Plasma concentration of COL-3 in humans; assay type: in vivo; conditions: dose of about 10 to about 20 mg/day
# Procedure: An example of a COL is 6-demethyl-6-deoxy-4-de(dimethylamino)tetracycline (COL-3). COL-3 is administered in doses of up to about 200 mg/day, preferably about 150 mg/day, more preferably about 100 mg/day, or in amounts that result in plasma concentrations of up to about 50 μg/ml, about 40 μg/ml or about 30 μg/ml. For example, a dose of about 10 to about 20 mg/day of COL-3 produces plasma concentrations in humans of about 1.0 μg/ml.
# herpes zoster (shingles) = experiment: Case report: patient on sub-antibacterial doxycycline hyclate who presented with shingles; assay type: in vivo, human; conditions: one patient
# Procedure: The below Example summarizes an incidence using 20 mg doxycycline hyclate tablets administered twice a day.
# A person (hereinafter “the patient”) had been taking generic Periostat® (20 mg doxycycline hyclate b.i.d.) for over a six month period when they presented with shingles. […] By this time, the patient had blistering and vesicular lesions, and lesions consisting of deep scabs on their face (e.g., upper cheek), neck and chest. All lesions presented on patient's left side without crossing the midline.
# The patient also reported being lethargic, weak and dizzy.
# The medical doctor who examined the patient was very surprised to hear that the lesions were not painful. They said that the lesions were at the stage where they typically cause intense pain. The doctor predicted that, even if the lesions were not painful at the moment, they would become very painful shortly, particularly since antiviral therapy would be initiated after 72 hours of the appearance of the characteristic lesions. Accordingly, the doctor prescribed the narcotic pain reliever Percocet®.
# The doctor also prescribed VALTREX®, an antiherpetic medication, in a dose of a 1 gram tablet, taken 3 times a day for 7 days. The doctor advised that VALTREX® should have been started within 2 or 3 days of the first appearance of a lesion in order to effectively minimize pain.
# The patient began taking the VALTREX®, as prescribed. […]
plasma concentration in humans [1],Compound,"pain reported by the patient throughout the course of shingles (herpes zoster (shingles); 20 mg b.i.d., no analgesic taken)","inhibition of the pain typically associated with lesions of shingles (herpes zoster (shingles); 20 mg tablets twice a day, taken for over six months before onset, VALTREX started over 96 hours after first lesion, no analgesic)"
about 1.0 μg/ml,"NC(=O)C1=C(O)C[C@@H]2C[C@@H]3Cc4cccc(O)c4C(=O)C3=C(O)[C@]2(O)C1=O [COL-3, 6-demethyl-6-deoxy-4-dedimethylaminotetracycline]",,
,doxycycline hyclate,did not feel any pain whatsoever,virtually complete inhibition
